According to patent US11382907B2, “Methods and compositions for treating aging-associated impairments using CCR3-inhibitors” (Alkahest, Inc., priority 2017, dated 2022):
“Also recorded” adds a separate entry of the source.

Legend:
aged C57Bl/6 mice = experiment: Barnes maze test in aged mice; format: in vivo
Excerpt: A modified Barnes maze was used to assess spatial working/episodic like learning and memory. The Barnes maze apparatus consists of a 122 cm diameter circular platform with 40 escape holes, each with a diameter of 5 cm placed along three rings of varying distances from the center of the platform. An escape box is attached to one of the holes and all holes are left uncovered. Bright lights and a fan are trained on the maze to provide adverse stimuli to encourage escape. Visual cues are placed on all four sides of the maze. Mice are given a series of 4 or 5 trials with inter-trial intervals of approximately 10 min, and the maximum duration of each trial is 90 or 120 sec. For each trial, mice are placed in the center of the maze. After 10 seconds, mice are allowed to explore, and the trial is ended if the mouse has found and entered an escape box before the end of the trial. Mice that cannot find the escape box are led to it and allowed to enter and given 30 sec to remain before being returned to its home cage. Training is done for 4 days. Data that is recorded and analyzed include velocity, escape latency, and distance moved.
Mice are divided into groups of 4-5 mice each, with balanced treatment groups. For example, Group 1 mice are run for 4 trials, then Group 2 mice are run for 4 trials, and so on until all groups finish testing. 70% ethanol is used to clean the arenas between trials.
Three-month-old or 16.5-month-old C57Bl/6 mice were dosed with either vehicle control or Compound 1 subcutaneously by Alzet osmotic pump for 4 weeks. During the last week of treatment, mice were subjected to behavior testing prior to perfusion on the last day of treatment. All mice received 5 consecutive days of BrdU injection at 150 mg/kg IP immediately prior to treatment start.
23-month-old C57Bl/6 mice were dosed with either vehicle control or Compound 1 subcutaneously twice daily for 21 days. Three weeks later, mice were subjected to behavior testing, and sacrificed the day following the last behavior test.

CCR3 receptor = target: T1, CCR3 receptor (Homo sapiens, UniProt P51677); experiment: CCR3 receptor internalization biomarker assay (FACS, whole blood); format: cell-based
T1 sequence (P51677 1-355): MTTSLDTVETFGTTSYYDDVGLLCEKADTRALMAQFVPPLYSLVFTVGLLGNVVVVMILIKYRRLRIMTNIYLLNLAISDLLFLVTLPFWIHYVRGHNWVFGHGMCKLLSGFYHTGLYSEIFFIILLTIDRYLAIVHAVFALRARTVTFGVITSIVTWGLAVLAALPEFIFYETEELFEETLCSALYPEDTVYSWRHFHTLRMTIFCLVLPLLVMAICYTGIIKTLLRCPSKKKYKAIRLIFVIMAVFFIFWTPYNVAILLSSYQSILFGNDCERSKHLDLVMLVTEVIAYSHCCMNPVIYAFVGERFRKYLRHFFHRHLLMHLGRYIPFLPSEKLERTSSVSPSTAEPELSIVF
Description: The CCR3 receptor internalization assay is FACS-based and uses human Eotaxin-1 (PreProTech, Rocky Hill, N.J.) and an anti-human CCR3 antibody labeled with APC (R&D Systems, Minneapolis, Minn.) or isotype control IgG2A antibody to monitor CCR3 receptor internalization in human eosinophils induced by human eotaxin-1 compared to naïve eosinophils. The median APC fluorescent intensity units for each sample were determined along with the mean of each set of sample triplicates.

blood eosinophils = experiment: Oxazolone-induced model of eosinophilia in hairless mice (CBC); format: in vivo; settings: 3-month-old hairless mice, oxazolone every other day, 30 mg/kg PO BID 2 weeks
Description: 3-month-old hairless mice were treated with oxazolone (Ox) every other day and treated with control saline or 30 mg/kg Compound 1 for 2 weeks BID, PO.
Treatment Groups: • Treatment Group 1, Vehicle treatment: 3-month-old Hairless mice (n=3) received twice daily (BID) oral gavage (PO) treatment of vehicle solution for 2 weeks. • Treatment Group 2, Vehicle treatment and Oxazolone treatment: 3-month-old Hairless mice (n=6) received twice daily (BID) oral gavage (PO) treatment of vehicle solution for 2 weeks. • Treatment Group 3, Compound 1 treatment and Oxazolone treatment: 3-month-old Hairless mice (n=6) received twice daily (BID) oral gavage (PO) treatment of Compound 1, 30 mg/kg, for 2 weeks.

[1] = tested on: three-month-old C57 mice treated with LPS; experiment: Y maze test in mice given daily LPS; format: in vivo; settings: 3-month-old mice; daily LPS 0.5 mg/kg IP; 30 mg/kg PO BID, after 3 weeks
Description: A large Y-maze test assesses short-term memory of the familiarity of a specific context. Mice are brought to the experimental room for at least 30 min of acclimation to the experimental room conditions (dim lighting) prior to testing. For the initial training trial, the mouse is placed at the end of one arm of a large Y-maze designated “start arm” (arm length: 15 inches). The third arm of the maze is blocked off, allowing the mouse to explore two of the three arms freely (“start arm” and “familiar arm”) for 5 min. Each arm contains spatial cues. One hour later, the mouse is placed back into the maze in the “start arm” and allowed to explore all three arms with the third arm unblocked (“novel arm”). Movements in and out of each arm are tracked using automated tracking software (CleverSys). Testing is performed under dim lighting, and the apparatus is cleaned with 70% ethanol between trials.
Three-month-old C57 mice were given daily doses of lipopolysaccharide (LPS) 0.5 mg/kg IP to induce inflammation and treated with Compound 1 for up to 4 weeks. […]

[2] = 16.5-month-old mice, 4-week dosing by pump
[3] = 23-month-old mice, 30 mg/kg SQ BID 21 days, tested three weeks later

IC50 (CCR3 receptor): < 100 nM
inhibition of CCR3 receptor internalization versus plasma Compound 1 concentration (CCR3 receptor; whole blood from humans treated with Compound 1, incubated with human recombinant eotaxin-1): robust concentration-dependent effect
SMILES: Cc1cc(C(=O)N(C)C)cc(NC(=O)[C@H]2CCC(=O)N2C2CCN(Cc3ccc(Cl)c(C)c3)CC2)n1 [Compound 1]
Barnes maze average of the latency for day 4 trials (aged C57Bl/6 mice; [2]): Trends for improved memory
Barnes maze difference between the latencies of trials 13 and 16 (aged C57Bl/6 mice; [2]): Trends for improved memory
performance in the Barnes maze (aged C57Bl/6 mice; [2]): trended towards improved performance
Barnes Maze spatial memory performance (aged C57Bl/6 mice; [3]): performed significantly better
velocity during the Barnes Maze test (aged C57Bl/6 mice; [3]): exhibited increased velocity
blood eosinophils (percentage of WBC count) (blood eosinophils): decreased the oxazolone-induced increase in blood eosinophils; also recorded: decreased an oxazolone-induced increase in blood eosinophils
Y maze preference for the novel arm [1]: showed a significant preference for the novel arm
